Laboratory results taken from paper PMC10065791 (eLife, 2023).
Read-outs that look alike come from different tables or passages of the source.

What was measured:
[1] = test system: virus pool selected to 5000 nM inhibitor; assay: TZM infection assay, inhibitor-selected resistant virus pools; type: cell-based, HIV-1; conditions: Human immunodeficiency virus 1, read-out: EC50 Viral culture (5000 nM)
Method: In addition to the sequence of the terminally selected virus, we validated that selection occurred over the entire course of the selection protocol. […] In comparing the number of mutations present in cultures using the I84V versus the I50V pathway, we noted that on average there were more mutations in the I50V viruses at the intermediate drug concentration compared to the I84V viruses (100 nM, p=0.03), and this trend continued at the higher drug concentration.
(§1) An aliquot of 3 × 10^6 CEMx174 cells was incubated at 37°C for 2–3 hr with 250 µl of a virus stock generated from the HIV-1 infectious molecular clone pNL4-3. The culture volume was then brought to 10 ml with RPMI medium. […] After 48 hr and every 48 hr after, the cells were pelleted by centrifugation and 10 ml of fresh medium and inhibitors were added. When the culture had undergone extensive cytopathic effect (CPE) indicative of viral replication, the supernatant medium and the cells were harvested separately and stored at –80°C. The virus-containing supernatant was used to start the next round of infection, and after several rounds at the initial concentration, the inhibitor concentration was increased 1.5-fold at each subsequent round of virus passage.
(§2) PI dilutions were prepared by taking 10 µM stocked and performing a fivefold serial dilution using RPMI media (final drug concentration is […]). One dilution of drug was added to each well of a 24-well plate and repeated so each virus would have a full set of dilutions. Viruses for the assay were made by seeding 3 × 10^6 CEM cells in a 24-well plate and incubating with 250 µl of virus at 37°C for 2–3 hr before bringing the culture to 10 ml with RPMI media. After 48 hr, the medium was changed and repeated every 48 hr after until the culture had undergone CPE. Infected CEM cells were collected and diluted so that 1 ml of cells could be plated in each well containing a unique drug dilution. Then 24 hr later the virus supernatant was collected from each well followed by filtering through a […] then placed in –80°C. Viruses were thawed and added to 96-well plates in triplicate. TZM-bl cells were collected and diluted to a concentration of 2 × 10^5 cells/ml, 100 µl were added on top of the pre-plated viruses. Plates were kept in 37°C, 5% CO2 in an incubator for 48 hr. After 48 hr, the cells in the plates were lysed by removing the medium, washing two times with 100 µl PBS, and then lysed with 1× lysis buffer (made from 5× Promega Firefly Lysis Buffer). Plates were frozen for at least 24 hr and then thawed for 2 hr before analyzing with Promega Firefly Luciferase Kit on a luminometer. Data was analyzed with Prism 7 to fit sigmoidal dose–response curves.

[2] = test system: wild-type virus NL4-3; assay: TZM infection assay (cell culture-based viral inhibition), wild-type virus; set-up: species or system HIV-1; conditions: Human immunodeficiency virus 1, NL43; wild-type NL4-3 virus; concentration at time of virus production reducing infectivity by 50%; TZM-bl readout
Method: as §2

[3] = test system: HIV-1 NL4-3 wild-type virus; assay: Selection for resistance in CEMx174 culture with escalating inhibitor, start wild-type virus, Primer ID deep sequencing; type: cell-based
Method: . The selection experiments were performed under two separate starting conditions: first when the starting virus was generated from the NL4-3 clone (this clone closely approximates the clade B consensus for the protease amino acid sequence and will be referred to as ‘wild type’), then again when the starting virus was a mixture of 26 isogenic viruses each with a single mutation associated with drug resistance in the NL4-3 background. […]. For technical reasons, only five of the selections starting with the mixture of mutants reached an inhibitor concentration as high as 400 nM and are reported here (Figure 2—figure supplement 3).
Resistance mutations selected in the protease coding domain during the escalating selective pressure of increasing PI concentration were examined at various timepoints using a next-generation sequencing (NGS) protocol that included Primer ID with the MiSeq platform ([Zhou et al., 2015]). We first examined the sequence of the most abundant variant in each of the two selection schemes present at the highest inhibitor concentration reached (Figure 2A). For those selections that reached 5 μM, 8–14 mutations were present in the most abundant variant. Typically the next two most abundant variants in the population differed by a single amino acid, and on average the three most abundant variants in the 5 μM cultures accounted for 88% of the total viral population (Figure 2—source data 1). Evolution of resistance followed two pathways, one based on I50V and one based on I84V. In three cultures, V2wt, V5wt, and V2mut (which reached either 4 or 5 μM final drug concentration; V2wt indicates the virus pool selected with UMASS-2 starting with wild-type virus), these two mutations, I84V and I50V, became linked on the same genome (Figure 2A) showing they are not mutually exclusive; […].
as §1
We used the PID protocol to prepare MiSeq PID libraries with multiplexed primers. Viral RNA was extracted from plasma samples using the QIAamp viral RNA mini kit (QIAGEN, Hilden, Germany). Complementary DNA (cDNA) was synthesized using a cDNA primer mixture targeting protease (PR) with a block of random nucleotides in each cDNA primer serving as the PID, and SuperScript III RT (Thermo Fisher). After two rounds of bead purification of the cDNA, we amplified the cDNA using a mixture of a forward primer that targeted the upstream coding region, followed by a second round of PCR to incorporate the Illumina adaptor sequences. Gel-purified libraries were pooled and sequenced using the MiSeq 300 base paired-end sequencing protocol (Illumina). The sequencing covered the HIV-1 PR region (HXB2 2648-2914, 3001-3257).
We used the Illumina bcl2fastq pipeline for the initial processing and constructed template consensus sequences (TCSs) with TCS pipeline version 1.33 (https://github.com/SwanstromLab/PID) ([Zhou, 2019]). We then aligned TCSs to an HXB2 reference to remove sequences not at the targeted region or that had large deletions. We used the Entropy tool at LANL (https://www.hiv.lanl.gov/content/sequence/ENTROPY/entropy.html) to calculate entropy for each specimen. The sequencing data is available at NIH Sequencing Read Archive (SRA) under BioProject ID PRJNA853351.

[4] = target: T1, I50V/A71V mutant protease (Human immunodeficiency virus type 1 group M subtype B, UniProt P12497, A559V/I538V/Q495K); set-up: method as in Lockbaum et al. (ACS Infect Dis. 2019 Feb 8; 5 (2): 316–325); conditions: I50V/A71V drug-resistant protease variant; previously reported; ref Lockbaum et al. (ACS Infect Dis. 2019 Feb 8; 5 (2): 316–325); cited from earlier work
T1 construct: the gene encoding the desired HIV-1 protease was subcloned into the heat-inducible pXC35 expression vector; made in house

[5] = target: T2, I84V mutant protease (Human immunodeficiency virus type 1 group M subtype B, UniProt P12497, I572V/Q495K); set-up: method as in Lockbaum et al. (ACS Infect Dis. 2019 Feb 8; 5 (2): 316–325); conditions: I84V drug-resistant protease variant; previously reported; ref Lockbaum et al. (ACS Infect Dis. 2019 Feb 8; 5 (2): 316–325); cited from earlier work
T2 construct: the gene encoding the desired HIV-1 protease was subcloned into the heat-inducible pXC35 expression vector; made in house

[6] = target: T3, wild-type NL4-3 protease (Human immunodeficiency virus type 1 group M subtype B, UniProt P12497, Q495K); set-up: method as in Lockbaum et al. (ACS Infect Dis. 2019 Feb 8; 5 (2): 316–325); conditions: previously reported, ref Lockbaum et al. (ACS Infect Dis. 2019 Feb 8, 5 (2): 316–325), read-out: Ki WT; cited from earlier work
T3 construct: the gene encoding the desired HIV-1 protease was subcloned into the heat-inducible pXC35 expression vector; made in house

[7] = target: T2, I84V mutant protease; assay: Ki assay (FRET enzyme inhibition), I84V protease; type: biochemical, HIV-1; conditions: I84V drug-resistant protease variant
Method: (§3) The highly mutated, resistant, protease variant genes were purchased on a pET11a plasmid with codon optimization for protein expression in Escherichia coli (Genewiz). A Q7K mutation was included to prevent autoproteolysis ([Rosé et al., 1993]). The expression, isolation, and purification of WT and mutant HIV-1 proteases used for enzymatic assays were carried out as previously described ([Henes et al., 2019]; [King et al., 2002]; [Özen et al., 2014]). Briefly, the gene encoding the desired HIV-1 protease was subcloned into the heat-inducible pXC35 expression vector (ATCC) and transformed into E. coli TAP-106 cells. Cells grown in 6 l of Terrific Broth were lysed with a cell disruptor twice, and the protein was purified from inclusion bodies ([Hui et al., 1993]). Inclusion bodies, isolated as a pellet after centrifugation, were dissolved in 50% acetic acid followed by another round of centrifugation at 19,000 rpm for 30 min to remove insoluble impurities. Size-exclusion chromatography was carried out on a 2.1 l Sephadex G-75 Superfine (Sigma Chemical) column equilibrated with 50% acetic acid to separate high molecular weight proteins from the desired protease. Pure fractions of HIV-1 protease were refolded using a tenfold dilution of refolding buffer (0.05 M sodium acetate at pH 5.5, 5% ethylene glycol, 10% glycerol, and 5 µM DTT). Folded protein was concentrated to 0.5–3 mg/ml and stored. The stored protease was used in KM and Ki assays.
(§4) Enzyme inhibition constants (Ki values) were determined as previously described ([Henes et al., 2019]; [Lockbaum et al., 2019]; [Matayoshi et al., 1990]; [Windsor and Raines, 2015]). Briefly, in a 96-well plate, inhibitors were serially diluted down from […] depending on protease resistance. All samples were incubated with 5 nM protein for 1 hr. A 10-amino acid substrate containing an optimized protease cleavage site ([Windsor and Raines, 2015]), purchased from Bachem, with an EDANS/DABCYL FRET pair was dissolved in 4% DMSO at 120 µM. Using a PerkinElmer Envision plate reader, 5 µl of the 120 µM substrate were added to the 96-well plate to a final concentration of 10 µM. […] Data was analyzed with Prism7.

[8] = target: T3, wild-type NL4-3 protease; assay: Ki assay (FRET enzyme inhibition), wild-type protease; type: biochemical, HIV-1; conditions: limit of detection 5 pM, read-out: Ki WT
Method: as §3, §4

[9] = target: T1, I50V/A71V mutant protease; assay: Ki assay (FRET enzyme inhibition), I50V/A71V protease; type: biochemical, HIV-1; conditions: I50V/A71V drug-resistant protease variant
Method: as §3, §4

## CC(C)CN(C[C@@H](O)[C@H](Cc1ccccc1)NC(=O)O[C@H]1CO[C@H]2OCC[C@H]21)S(=O)(=O)c1ccc(N)cc1 [DRV, Darunavir, reference compound]
[1]
  EC50: > 100000 nM
[2]
  EC50: 7.7 ± 1.6 nM
[3]; variant 10I/32I/41I/46I/47V/82I/84V/85V, passage 43, [PI] 1350 nM
  Abundance of variant at the last time point: 10.3%
[3]; variant 32I/41I/46I/47V/82I/84V/85V, passage 43, [PI] 1350 nM
  Abundance of variant at the last time point: 62.8%
[3]; variant 32I/41I/46I/47V/82L/84V/85V, passage 43, [PI] 1350 nM
  Abundance of variant at the last time point: 10.1%

## CC[C@H](C)CN(C[C@@H](O)[C@H](Cc1ccccc1)NC(=O)O[C@H]1CO[C@H]2OCC[C@H]21)S(=O)(=O)c1ccc(N)cc1 [UMASS-1]
[4]
  Ki: 0.11 ± 0.0088 nM
[2]
  EC50: 5.9 ± 1 nM
[5]
  Ki: 0.0261 ± 0.0037 nM
[3]; variant 10I/16E/32I/33F/46I/54L/71V/76V/82I/84V, passage 75, [PI] 5000 nM
  Abundance of variant at the last time point: 55.4%
[3]; variant 10I/16E/32I/33F/46I/54L/71V/76V/82I/84V/91S, passage 75, [PI] 5000 nM
  Abundance of variant at the last time point: 6.2%
[3]; variant 10I/32I/33F/46I/54L/71V/76V/82I/84V, passage 75, [PI] 5000 nM
  Abundance of variant at the last time point: 21.9%
[6]
  Ki: < 0.005 nM

## CC[C@H](C)CN(C[C@@H](O)[C@H](Cc1ccccc1)NC(=O)O[C@H]1CO[C@H]2OCC[C@H]21)S(=O)(=O)c1ccc(OC)cc1 [UMASS-2]
[7]
  Ki: < 0.005 nM
[2]
  EC50: 2.4 ± 0.3 nM
[8]
  Ki: < 0.005 nM
[3]; variant 10F/33F/46I/47V/50V/71V/82I/84V, passage 82, [PI] 5000 nM
  Abundance of variant at the last time point: 37.5%
[3]; variant 28S/32I/33F/46I/47V/50V/71V/82I/84V, passage 82, [PI] 5000 nM
  Abundance of variant at the last time point: 33.5%
[3]; variant 33F/46I/47V/50V/71V/82I/84V, passage 82, [PI] 5000 nM
  Abundance of variant at the last time point: 4.2%
[9]
  Ki: 0.015 ± 0.0027 nM

## CCC(CC)CN(C[C@@H](O)[C@H](Cc1ccccc1)NC(=O)O[C@H]1CO[C@H]2OCC[C@H]21)S(=O)(=O)c1ccc(CO)cc1 [UMASS-8]
[7]
  Ki: < 0.005 nM
[2]
  EC50: 4.2 ± 0.9 nM
[8]
  Ki: < 0.005 nM
[3]; variant 10F/12K/33F/46I/47V/50V/53L/54L/63P/71V/82I/85V, passage 67, [PI] 5000 nM
  Abundance of variant at the last time point: 55.4%
[3]; variant 10F/12K/33F/46I/47V/50V/53L/54L/63P/71V/82I/85V/87K, passage 67, [PI] 5000 nM
  Abundance of variant at the last time point: 0.1%
[3]; variant 10F/33F/46I/47V/50V/53L/54L/63P/71V/82I/85V, passage 67, [PI] 5000 nM
  Abundance of variant at the last time point: 41.9%
[9]
  Ki: 0.0554 ± 0.004 nM

## CCC(CC)CN(C[C@@H](O)[C@H](Cc1ccccc1)NC(=O)O[C@H]1CO[C@H]2OCC[C@H]21)S(=O)(=O)c1ccc2ncsc2c1 [UMASS-10]
[7]
  Ki: 0.0143 ± 0.0093 nM
[2]
  EC50: 4.1 ± 0.9 nM
[8]
  Ki: < 0.005 nM
[3]; variant 10F/13V/33F/43T/46I/47V/50V/54L/71V/77I/82L/88S, passage 77, [PI] 5000 nM
  Abundance of variant at the last time point: 1.6%
[3]; variant 10F/13V/33F/43T/46I/47V/50V/54L/71V/82L/87K/88S, passage 77, [PI] 5000 nM
  Abundance of variant at the last time point: 0.2%
[3]; variant 10F/13V/33F/43T/46I/47V/50V/54L/71V/82L/88S, passage 77, [PI] 5000 nM
  Abundance of variant at the last time point: 91.2%
[9]
  Ki: 0.0058 ± 0.0011 nM
